{"source": "paper PMC12299890", "about": "(Pharmaceuticals, 2025)", "key": {"[1]": {"design": "method as in PMID 16250252", "settings": "male Sprague-Dawley rats; cited from earlier work"}, "[2]": {"test": "Pharmacokinetics of MI in Wistar rat model after oral administration (Antonowski and co-workers)", "format": "in vivo", "settings": "rat serum; MI data of ref 30 vs SCI of this study", "protocol": "Antonowski and co-workers examined the PK of MI in Wistar rat models.\nBioavailability studies in animal models are a critical step in evaluating how much of a substance is absorbed and becomes available in the body. A rat model is excellent to maximize the relevance of SCI to human health. Antonowski and co-workers used a rat model for the PK analysis of MI. In this study, a dose of 20 mg/kg MI was orally administrated to rats and afterwards, the serum concentration of MI was measured. […] Then, the concentration of MI began to decrease immediately. […] Studies should be extended to include intraperitoneal injection or direct injection into blood vessels to determine the bioactivity of these INSs."}, "[3]": {"settings": "cited from earlier work"}}, "note": "Entries after “also recorded” stand apart in the source; their conditions may differ.", "data": [{"smiles": "O=C(O)[C@H]1O[C@@H](Oc2cc3oc(-c4ccc(O)cc4)cc(=O)c3c(O)c2O)[C@H](O)[C@@H](O)[C@@H]1O", "note": "[scutellarin]", "values": [{"measurement": "Relative bioavailability of oral administration compared to intraperitoneal injection", "setting": "[1]", "value": "very low"}]}, {"smiles": "O[C@H]1[C@H](O)[C@@H](O)[C@H](O)[C@@H](O)[C@H]1O", "note": "[MI, myo-inositol]", "values": [{"measurement": "AUC of MI compared with SCI", "setting": "[2]", "value": "lower than for SCI"}, {"measurement": "Side effects of MI administration", "setting": "[3]; oral MI", "value": "no serious side effects"}, {"measurement": "Time of highest MI serum concentration (Cmax) after oral administration", "setting": "[3]; serum, oral 20 mg/kg MI", "value": "first hour"}, {"measurement": "MI level 24 h after administration", "setting": "[3]; serum, oral MI", "value": "still higher than before the administration; also recorded: still higher than before the supplementation"}]}]}
